Measured values published in patent US11179348B2, “Combination comprising pterostilbene for the treatment of cancer” (FUNDACIÓN UNIVERSIDAD CATÓLICA DE VALENCIA SAN VICENTE …, priority 2015, dated 2021).

Key:
[1] = test system: glucocorticoid receptors (GR); experiment: GR content of human cancer cells by [3H]-labeled ligand whole-cell binding assay
ACTH = experiment: Plasma ACTH levels (ELISA) in tumor-bearing mice; type: in vivo; conditions: 6 h circadian time
From the text: (§1) Measurement of ACTH, Corticosterone, and NORA Levels.
(§2) Plasma levels of ACTH (Calbiotech, Inc., Spring Valley, Calif.), corticosterone (Kamiyama Biomedical Co., Seattle, Wash.), and NORA (IBL, Hamburg, Germany) were quantified by ELISA according to the instructions of the suppliers.

AsPC-1 pancreatic cancer = experiment: In vivo growth of AsPC-1 pancreatic cancer xenografts; set-up: species or system human; conditions: AsPC-1-RFP; 28 days after inoculation; Pter and/or CRC
MeWo melanoma = experiment: In vivo growth of MeWo melanoma xenografts in nu/nu mice; set-up: species or system human; conditions: MeWo-RFP; 35 days after inoculation; Pter 30 mg/kg i.v. every 48 h and/or CRC infusion 0.3 μg/h
MelJuso melanoma = experiment: In vivo growth of MelJuso melanoma xenografts in nu/nu mice; set-up: species or system human; conditions: MelJuso-RFP; 35 days after inoculation; Pter 30 mg/kg i.v. every 48 h and/or CRC infusion 0.3 μg/h
BxPC-3 pancreatic cancer = experiment: In vivo growth of BxPC-3 pancreatic cancer xenografts; set-up: species or system human; conditions: BxPC-3-RFP; 35 days after inoculation; Pter and/or CRC
corticosterone = experiment: Plasma corticosterone levels (ELISA) in tumor-bearing mice; type: in vivo; conditions: 12 h circadian time
From the text: as §1, §2

A2058 melanoma = experiment: In vivo growth of A2058 melanoma xenografts in nu/nu mice; set-up: species or system human; conditions: A2058-RFP; 35 days after inoculation; Pter 30 mg/kg i.v. every 48 h and/or CRC infusion 0.3 μg/h

With `C[C@]12C[C@H](O)[C@H]3[C@@H](CCC4=CC(=O)CC[C@@]43C)[C@@H]1CC[C@@H]2C(=O)CO` [CRC, corticosterone, reference compound] the “GR number (binding sites/cell)” value ([1]; A2058-RFP tumors, day 35) was 80 ± 7 10^3 GR/cell, the “GR number (binding sites/cell)” value ([1]; AsPC-1-RFP tumors, day 28) was 67 ± 7 10^3 GR/cell and the “GR number (binding sites/cell)” value ([1]; BxPC-3-RFP tumors, day 35) was 134 ± 36 10^3 GR/cell. For the same molecule, the “GR number (binding sites/cell)” value ([1]; MeWo-RFP tumors, day 35) was 49 ± 7 10^3 GR/cell, the “GR number (binding sites/cell)” value ([1]; MelJuso-RFP tumors, day 35) was 46 ± 6 10^3 GR/cell and the ACTH (ACTH; AsPC-1-bearing mice, day 28) was 106 ± 17 pg/mL plasma. It also gave an ACTH (ACTH; BxPC-3-bearing mice, day 35) of 55 ± 12 pg/mL plasma, a Tumor vol. (AsPC-1 pancreatic cancer) of 1066 ± 235 mm^3 and a Tumor vol. (MeWo melanoma) of 426 ± 116 mm^3. It also gave a Tumor vol. (MelJuso melanoma) of 240 ± 94 mm^3, a Tumor vol. (BxPC-3 pancreatic cancer) of 588 ± 158 mm^3 and a CRC (corticosterone; A2058-bearing mice, day 35) of 205 ± 48 ng/mL plasma. The CRC (corticosterone; AsPC-1-bearing mice, day 28) was 324 ± 48 ng/mL plasma, the CRC (corticosterone; BxPC-3-bearing mice, day 35) was 177 ± 36 ng/mL plasma and the CRC (corticosterone; MeWo-bearing mice, day 35) was 177 ± 29 ng/mL plasma. It also gave a CRC (corticosterone; MelJuso-bearing mice, day 35) of 164 ± 41 ng/mL plasma and a Tumor vol. (A2058 melanoma) of 857 ± 185 mm^3.
